From patent US9718905B2, “Polythiophene, water-soluble electrically conductive polymer using it, and method for producing it” (TOSOH CORPORATION, priority 2012, dated 2017)

Legend:
[1] = Water solubility of thiophene compound (monomer); format: physicochemical
Procedure: The thiophene compound used as the material is more preferably one having water solubility to such an extent that it is dissolved in water at room temperature or with heating in an amount of at least 0.5 wt %.
The thiophene compound used as a material is more preferably one having water solubility to such an extent that it is soluble in water at room temperature or with heating in an amount of at least 0.5 wt %.

[2] = Storage and handling in air; format: physicochemical

In the case of `O=S(=O)([O-])CCNCC1COc2cscc2O1.[K+]` (stereo not drawn) [Example 1, Potassium N-(2,3-dihydro-thieno[3,4-b][1,4]dioxin-2-ylmethyl)-2-aminoethanesulfonate], the water solubility ([1]; at room temperature) is reported as “at least 1 wt %” and the “storage and handling in air” value [2] is reported as “could be stored and handled in air”.
With `CN(CCS(=O)(=O)[O-])CC1COc2cscc2O1.[Na+]` (stereo not drawn) [Example 2, Sodium N-methyl-N-(2,3-dihydro-thieno[3,4-b][1,4]dioxin-2-ylmethyl)-2-aminoethanesulfonate] the water solubility ([1]; at room temperature) was “at least 1 wt %” and the “storage and handling in air” value [2] was “could be stored and handled in air”.
With `O=S(=O)([O-])CC1COc2cscc2O1.[Na+]` (stereo not drawn) [Example 3, Sodium 2,3-dihydro-thieno[3,4-b][1,4]dioxin-2-ylmethanesulfonate] the water solubility ([1]; at room temperature) was “at least 1 wt %” and the “storage and handling in air” value [2] was “could be stored and handled in air”.
For `O=S(=O)([O-])CCCCCCC1COc2cscc2O1.[Na+]` (stereo not drawn) [Example 4, sodium 6-(2,3-dihydro-thieno[3,4-b][1,4]dioxin-2-yl)-1-hexanesulfonate], the water solubility ([1]; at room temperature) was “at least 1 wt %” and the “storage and handling in air” value [2] was “could be stored and handled in air”.
In the case of `O=S(=O)([O-])c1ccc(OCC2COc3cscc3O2)cc1.[K+]` (stereo not drawn) [Example 17, Potassium O-(2,3-dihydro-thieno[3,4-b][1,4]dioxin-2-ylmethyl)-4-phenolsulfonate], the water solubility ([1]; temperature not stated) is reported as “at least 1 wt %” and the “storage and handling in air” value [2] is reported as “could be stored and handled in air”.
For `O=S(=O)([O-])c1ccc(OCC2COc3cscc3O2)cc1.[Na+]` (stereo not drawn) [Example 18, sodium O-(2,3-dihydro-thieno[3,4-b][1,4]dioxin-2-ylmethyl)-4-phenolsulfonate], the water solubility ([1]; temperature not stated) was “at least 1%” and the “storage and handling in air” value [2] was “could be stored and handled in air”.
